Source: PMC6266505, “Limonoids Containing a C1–O–C29 Moiety: Isolation, Structural Modification, and Antiviral Activity” (Marine Drugs, 2018)
Where two headings read alike, the source gives them in different places.

Tests used:
influenza A virus (IAV) = conditions: cited from earlier work
HIV-1 [1] = experiment: microbe, parasite or virus in culture
in vitro = conditions: human
[2] = cited from earlier work
HIV-1 [3] = conditions: read-out: IC50 against HIV-1; cited from earlier work
IAV = experiment: Anti-IAV bioassay; format: cell-based; conditions: Influenza A virus, read-out: Inhibition Rate (%) against IAV, positive control

Question: With COC(=O)C[C@@H]1[C@@]2(C)[C@H]3CC[C@]4(C)C(=C3[C@@]3(O)[C@@H](OC(C)=O)C(=O)[C@]1(C)C[C@@]23O)CC(=O)O[C@H]4c1ccoc1 [thaixylomolin I] as the compound, how does the “antiviral activity against influenza A virus (IAV), in words” value (“antiviral activity” for short) (influenza A virus (IAV)) read?
Answer: The value was “moderate antiviral activity”.

Question: What about the IC50 (influenza A virus (IAV); read-out: IC50 against IAV) of the same compound?
Answer: The IC50 was 77.1 ± 8.7 µM.

Question: For C/C=C(\C)C(=O)O[C@@H]1[C@@H]2C=C3[C@@H]4CC(=O)O[C@@H](c5ccoc5)[C@]4(C)CC[C@@H]3[C@]3(C)[C@@H](CC(=O)OC)[C@]1(C)CO[C@]23O [Compound 6, granatumin L], which IC50 (HIV-1 [1]; Human immunodeficiency virus 1, SUP-T1, read-out: IC50 Value (μM) against HIV-1) is on record?
Answer: Its IC50 is 19.23 ± 0.12 µM.

Question: What about the inhibition at 20 µM (HIV-1 [1]; Human immunodeficiency virus 1, SUP-T1, read-out: Inhibition Rate (20.0 μM) (%) against HIV-1) of the same compound?
Answer: Its inhibition at 20 µM is 67.1 ± 3.04%.

Question: And the CC50 (in vitro)?
Answer: The CC50 was > 100 µM.

Question: With COC(=O)C[C@H]1[C@@]2(C)C[C@]3(O)[C@H](C(=O)[C@H]2OC(C)=O)C2=C(CC[C@]4(C)C2=CC(=O)O[C@H]4c2ccoc2)[C@]13C [thaixylomolin M] as the compound, how does the “antiviral activity” value (influenza A virus (IAV)) read?
Answer: The value was “moderate antiviral activity”.

Question: What does the source list for CC[C@H](C)C(=O)O[C@@H]1C(=O)[C@@]2(OC(=O)C(C)C)[C@@]3(O)C[C@@]1(C)[C@H](CC(=O)OC)[C@@]3(C)[C@H]1CC[C@@]3(C)[C@H](c4ccoc4)OC(=O)C[C@]34O[C@]142 [Krishnolide A]?
Answer: CC50 [2]: 78.5 ± 1.69 µM; IC50 (HIV-1 [3]): 17.4 ± 1.65 µM

Question: With COC(=O)C[C@H]1[C@@]2(C)C[C@]3(O)[C@H](C(=O)[C@H]2OC(C)=O)C2=C4CC(=O)O[C@@H](c5ccoc5)[C@]4(C)CC[C@@H]2[C@]13C [thaixylomolin K] as the compound, how does the “antiviral activity” value (influenza A virus (IAV)) read?
Answer: Its value is “moderate antiviral activity”.

Question: For NC(=O)c1ncn([C@@H]2O[C@H](CO)[C@@H](O)[C@H]2O)n1 [ribavirin], which inhibition at 60 µM (IAV) is on record?
Answer: Its inhibition at 60 µM is 87.5 ± 2.86%.
